# Assay results taken from patent US10179125B2, “Substituted pyridines as bromodomain inhibitors” (Zenith Epigenetics Ltd., priority 2014, dated 2019).
# Experiments:
# hIL-6 = experiment: Inhibition of hIL-6 mRNA transcription in LPS-stimulated U937 cells; type: cell-based, Human; conditions: 1 h pretreatment, LPS 3 h; for IC50: Homo sapiens, U-937, PMA-differentiated U937 cells, read-out: IL-6 activity
# Procedure: Human leukemic monocyte lymphoma U937 cells (CRL-1593.2) were plated at a density of 3.2×10^4 cells per well in a 96-well plate in 100 μL RPMI-1640 containing 10% FBS and penicillin/streptomycin, and differentiated into macrophages for 3 days in 60 ng/mL PMA ([…]) at 37° C. in 5% CO2 prior to the addition of compound. The cells were pretreated for 1 h with increasing concentrations of test compound in 0.1% DMSO prior to stimulation with 1 ug/mL lipopolysaccharide from Escherichia coli. Triplicate wells were used for each concentration. The cells were incubated at 37° C., 5% CO2 for 3 h before the cells were harvested. At time of harvest, media was removed and cells were rinsed in 200 μL PBS. Cells were harvested using the mRNA Catcher PLUS kit according to manufacturer's instructions. The eluted mRNA was then used in a one-step quantitative real-time PCR reaction using components of the RNA UltraSense™ One-Step Kit (Life Technologies) together with Applied Biosystems TaqMan® primer-probes for hIL-6 and Cyclophilin. Real-time PCR plates were run on a ViiA™7 real time PCR machine (Applied Biosystems), data was analyzed, normalizing the Ct values for hIL-6 to an internal control, prior to determining the fold expression of each sample, relative to the control.
# cMYC = experiment: Inhibition of cMYC expression in MV4-11 cells (real-time PCR); type: cell-based, Human; conditions: 3 h, cMYC mRNA; for IC50: Homo sapiens, read-out: c-myc activity
# Procedure: MV4-11 cells (CRL-9591) were plated at a density of 2.5×10^4 cells per well in 96 well U-bottom plates and treated with increasing concentrations of test compound or DMSO (0.1%) in IMDM media containing 10% FBS and penicillin/streptomycin, and incubated for 3 h at 37° C. Triplicate wells were used for each concentration. Cells were pelleted by centrifugation and harvested using the mRNA Catcher PLUS kit according to manufacturer's instructions. The eluted mRNA isolated was then used in a one-step quantitative real-time PCR reaction, using components of the RNA UltraSense™ One-Step Kit (Life Technologies) together with Applied Biosystems TaqMan® primer-probes for cMYC and Cyclophilin, Real-time PCR plates were run on a ViiA™7 real time PCR machine (Applied Biosystems), data was analyzed, normalizing the Ct values for cMYC to an internal control, prior to determining the fold expression of each sample, relative to the control.
# [1] = molecular target: T1, Brd4 bromodomain 1 (BRD4(1)) (Homo sapiens, UniProt O60885); experiment: Inhibition of tetra-acetylated histone H4 binding to BET bromodomain (HTRF/FRET); conditions: His-tagged bromodomain 200 nM, biotinylated tetra-acetylated histone H4 peptide, 2 h room temperature
# T1 construct: made in house; host or cells: E. coli BL21(DE3)
# Procedure: Proteins were cloned and overexpressed with a N-terminal 6×His tag, then purified by nickel affinity followed by size exclusion chromatography. Briefly, E. coli BL21(DE3) cells were transformed with a recombinant expression vector encoding N-terminally Nickel affinity tagged bromodomains from Brd2, Brd3, Brd4. Cell cultures were incubated at 37° C. with shaking to the appropriate density and induced overnight with IPTG. The supernatant of lysed cells was loaded onto Ni-IDA column for purification, Eluted protein was pooled, concentrated and further purified by size exclusion chromatography. Fractions representing monomeric protein were pooled, concentrated, aliquoted, and frozen at −80° C. for use in subsequent experiments.
# Binding of tetra-acetylated histone H4 and BET bromodomains was confirmed by a Homogenous Time Resolved Fluorescence Resonance Energy Transfer (HTRF®) method, N-terminally His-tagged bromodomains (200 nM) and biotinylated tetra-acetylated histone H4 peptide (25-50 nM, Millipore) were incubated in the presence of Europium Cryptate-labeled streptavidin (Cisbio Cat, #610SAKLB) and XL665-labeled monoclonal anti-His antibody (Cisbio Cat.1461HISXLB) in a white 96 well microtiter plate (Greiner). For inhibition assays, serially diluted test compound was added to these reactions in a 0.2% final concentration of DMSO. Duplicate wells were used for each concentration tested. Final buffer concentrations were 30 mM HEPES pH 7.4, 30 mM NaCl, 0.3 mM CHAPS, 20 mM phosphate pH 7.0, 320 mM KF, 0.08% BSA. After a 2 h incubation at room temperature, fluorescence was measured at 665 and 620 nm with a SynergyH4 plate reader (Biotek). The binding inhibitory activity was shown by a decrease in […] relative to 620 nm fluorescence. IC50 values were determined from a dose response curve.
# Human AML MV-4-11 cells = experiment: Inhibition of cell proliferation in MV4-11 cells (CellTiter Aqueous One); type: cell-based; conditions: 72 h; for IC50: Homo sapiens
# Procedure: MV4-11 cells (CRL-9591) were plated at a density of 5×10^4 cells per well in 96 well flat bottom plates and treated with increasing concentrations of test compound or DMSO (0.1%) in IMDM media containing 10% FBS and penicillin/streptomycin. Triplicate wells were used for each concentration and a well containing only media was used as a control. Plates were incubated at 37° C., 5% CO2 for 72 h before adding 20 μL of the CellTiter Aqueous One Solution (Promega) to each well and incubated at 37° C., 5% CO2 for an additional 3-4 h. The absorbance was read at 490 nm in a spectrophotometer and the percentage of cell titer relative to DMSO-treated cells was calculated after correcting for background by subtracting the blank well's signal. IC50 values were calculated using the GraphPad Prism software.
IC50 (hIL-6),IC50 (cMYC),IC50 [1],IC50 (Human AML MV-4-11 cells),SMILES,IL-6 activity (hIL-6; PMA-differentiated U937 cells),c-myc activity (cMYC),Cell Proliferation activity (Human AML MV-4-11 cells)
300 to 3000 nM,3000 to 30000 nM,≤ 300 nM,3000 to 30000 nM,"COc1ncc(-c2c(C)noc2C)cc1NCc1ccc(Cl)s1 [Example 8, N-((5-chlorothiophen-2-yl)methyl)-5-(3,5-dimethylisoxazol-4-yl)-2-methoxypyridin-3-amine]",,,
300 to 3000 nM,3000 to 30000 nM,300 to 3000 nM,3000 to 30000 nM,"COc1ncc(-c2c(C)noc2C)cc1NCc1ccncc1 [Example 17, 5-(3,5-dimethylisoxazol-4-yl)-2-methoxy-N-(pyridin-4-ylmethyl)pyridin-3-amine]",,,
300 to 3000 nM,3000 to 30000 nM,300 to 3000 nM,3000 to 30000 nM,"COc1ncc(-c2c(C)noc2C)cc1Oc1cc(C#N)ccc1C [Example 65, 3-((5-(3,5-dimethylisoxazol-4-yl)-2-methoxypyridin-3-yl)oxy)-4-methylbenzonitrile]",,,
≤ 300 nM,≤ 300 nM,≤ 300 nM,300 to 3000 nM,"COc1ncc(-c2c(C)noc2C)cc1Nc1c(C)nn(C)c1C [Example 60, 5-(3,5-dimethylisoxazol-4-yl)-2-methoxy-N-(1,3,5-trimethyl-1H-pyrazol-4-yl)pyridin-3-amine]",,,
300 to 3000 nM,300 to 3000 nM,≤ 300 nM,300 to 3000 nM,"COc1ncc(-c2c(C)noc2C)cc1NCc1cccc2ncccc12 [Example 58, 5-(3,5-dimethylisoxazol-4-yl)-2-methoxy-N-(quinolin-5-ylmethyl)pyridin-3-amine]",,,
300 to 3000 nM,3000 to 30000 nM,300 to 3000 nM,3000 to 30000 nM,"COc1ncc(-c2c(C)noc2C)cc1Oc1cccnc1C [Example 66, 4-(6-methoxy-5-((2-methylpyridin-3-yl)oxy)pyridin-3-yl)-3,5-dimethylisoxazole]",,,
300 to 3000 nM,300 to 3000 nM,≤ 300 nM,3000 to 30000 nM,"COc1ncc(-c2c(C)noc2C)cc1Oc1cc(C(N)=O)ccc1C [Example 67, 3-((5-(3,5-dimethylisoxazol-4-yl)-2-methoxypyridin-3-yl)oxy)-4-methylbenzamide]",,,
300 to 3000 nM,300 to 3000 nM,≤ 300 nM,300 to 3000 nM,"COc1ncc(-c2c(C)noc2C)cc1NCc1cccnc1 [Example 33, 5-(3,5-dimethylisoxazol-4-yl)-2-methoxy-N-(pyridin-3-ylmethyl)pyridin-3-amine]",,,
300 to 3000 nM,300 to 3000 nM,≤ 300 nM,3000 to 30000 nM,"COc1ncc(-c2c(C)noc2C)cc1NCc1cnoc1 [Example 42, 5-(3,5-dimethylisoxazol-4-yl)-N-(isoxazol-4-ylmethyl)-2-methoxypyridin-3-amine]",,,
300 to 3000 nM,300 to 3000 nM,≤ 300 nM,300 to 3000 nM,"CNc1ncc(-c2c(C)noc2C)cc1NCc1ccsc1 [Example 68, 5-(3,5-dimethylisoxazol-4-yl)-N2-methyl-N3-(thiophen-3-ylmethyl)pyridine-2,3-diamine]",,,
,,≤ 300 nM,,"COc1ncc(-c2c(C)noc2C)cc1NCc1ccc2ccccc2n1 [Example 47, 5-(3,5-dimethylisoxazol-4-yl)-2-methoxy-N-(quinolin-2-ylmethyl)pyridin-3-amine]",Not Active,Not Active,Not Active
300 to 3000 nM,3000 to 30000 nM,≤ 300 nM,3000 to 30000 nM,"COc1ncc(-c2c(C)noc2C)cc1OCc1ccc(F)cc1 [Example 32, 4-(5-((4-fluorobenzyl)oxy)-6-methoxypyridin-3-yl)-3,5-dimethylisoxazole]",,,
3000 to 30000 nM,300 to 3000 nM,≤ 300 nM,300 to 3000 nM,"COc1ncc(-c2c(C)noc2C)cc1Nc1ccc(Cl)cc1 [Example 36, N-(4-chlorophenyl)-5-(3,5-dimethylisoxazol-4-yl)-2-methoxypyridin-3-amine]",,,
